According to US20050113286A1, “Methods for treating congestive heart failure” (priority 2002, published 2005):
Entries after “also recorded” stand apart in the source; their conditions may differ.

Key:
[1] = system: patients with chronic decompensated HF; assay: FUSION I: global clinical status, 7-point ordinal scale; assay type: in vivo, human; details: for Investigators' assessment: Reported improvement from baseline (%): moderately or markedly improved; for Investigators' assessment: Mean change from baseline / Patients' assessment: Mean change from baseline: scale −3 to +3
Experimental: At weeks 4, 8, and 12, the change from baseline global clinical status was assessed by both the patient and the investigator; assessments were rated on a 7-point ordinal scale from markedly worse (−3) to markedly better (+3).^1l,12 In addition, patients' assessment of quality of life was measured at baseline and at weeks 4, 8, and 12 using the Minnesota Living With HF questionnaire. (Rector TS, Kubo SH, Cohn J N. Patients' self-assessment of their congestive heart failure. Part 2: Content, reliability and validity of a new measure, The Minnesota Living with Heart Failure Questionnaire. Heart Failure 1987;October/November:198-209.)

[2] = system: endothelin-1; assay: FUSION I: serum endothelin-1; assay type: in vivo, human
Excerpt: Surrogate measures with mechanistic implications included measures of serum aldosterone, serum endothelin-1, and serial measurements of ventricular function using ejection fractions derived from echocardiography. […] Left ventricular ejection fractions were serially measured and read at a core lab (Midwest Heart Foundation Echocardiographic Core Laboratory, Lombard, Ill.).

[3] = system: patients with acutely decompensated congestive heart failure; details: in vivo; cited from earlier work
[4] = system: patients with chronic decompensated HF; assay: FUSION I: safety and tolerability of serial outpatient nesiritide infusions; assay type: in vivo; details: for Patients discontinued from the study before week 12 because of an AE, number / Patients discontinued from the study prematurely due to an AE, %: primarily worsening HF
Experimental: The objective of the FUSION I study was to assess the safety and tolerability of nesiritide when administered in an outpatient setting as serial parenteral infusions to patients with chronic decompensated HF who were at high risk for hospitalization and were receiving established usual therapy for HF. The study compared usual care with usual care plus nesiritide given as 1 of 2 dosing strategies. All patients were evaluated weekly and treated in established HF clinics.
In this multicenter, open-label, pilot study, patients were randomly assigned to 1 of 3 treatment groups in a 1:1:1 ratio: (1) usual care, as determined by the investigating physician; (2) usual care plus nesiritide 0.005 μg/kg/min given for 4 to 6 hours, preceded by a 1.0-μg/kg bolus; or (3) usual care plus nesiritide 0.01 μg/kg/min given for 4 to 6 hours, preceded by a 2.0-μg/kg bolus (FIG. 1). The study treatment period was 12 weeks with an additional 4 weeks of follow-up. Nesiritide (Natrecor®) was supplied by Scios Inc., Fremont, Calif. Informed consent was obtained from each patient prior to enrollment, and the Ethics Committee of each institution prospectively approved the study.
All patients, regardless of treatment assignment, were required to have weekly clinic visits in an established HF clinic. If the patient had been randomized to nesiritide, half of the protocol-specified nesiritide dose was administered on the first weekly visit to assess safety. The 0.005 μg/kg/min nesiritide group received a 0.5 μg/kg bolus followed by a 0.0025 μg/kg/min infusion; and the 0.01 μg/kg/min nesiritide group received a 1.0 μg/kg bolus followed by a 0.005 μg/kg/min infusion. At subsequent visits (starting with week 2), the dose was increased to the protocol-specified dose for that group.
Nesiritide was administered as an IV bolus immediately followed by a fixed-rate infusion for 4 to 6 hours, based on the investigators' discretion, for 12 consecutive weeks. Before each infusion, the investigator assessed the patient's hydration status and HF symptoms as per the protocol. The investigator could choose the infusion frequency from once every other week to twice weekly based on hydration status and HF symptoms.
The primary goal of this open-label study was to assess the safety and tolerability of different nesiritide doses administered as serial outpatient infusions. Safety and tolerability were measured through investigator reporting of adverse events (AEs), serious AEs, discontinuations of study infusions, laboratory assessments, and vital signs. An AE was defined as any new onset or worsening of any medical condition since study entry. A serious AE were those AEs, which lead to death, hospitalization, or prolonged hospitalization. The effect of nesiritide infusions on renal function was also monitored as a safety variable, with renal AEs defined as increased blood urea nitrogen (BUN) or serum creatinine levels (determined by investigator's discretion), onset of oliguria, or occurrence of acute renal failure. Clinical events were followed to further evaluate safety and tolerability.

[5] = system: acute decompensated heart failure; details: compared with milrinone; cited from earlier work
[6] = week 4, both nesiritide groups, count in cell 125
[7] = week 12, 0.01 μg/kg/min, count in cell 51
[8] = 0.005 μg/kg/min, n = 72, 819 infusions
[9] = 0.01 μg/kg/min, n = 69, 826 infusions
[10] = all nesiritide patients, n = 141
[11] = all nesiritide patients, n = 141, 1645 infusions

In the case of “Nesiritide: a recombinant form of human B-type natriuretic peptide (BNP)”, the “Global clinical status, investigators' assessments, compared with usual-care group” value ([1]; 0.01-μg/kg/min group, p≦0.004 at all time points) was “significant improvement”, the “Global clinical status, patients' assessments, among treatment groups” value ([1]; all treatment groups) was “no significant differences” and the “Patients' assessment: Reported improvement from baseline (%)” value (from here on “Patients' assessment … (%)”) ([1]; week 4, 0.005 μg/kg/min, count in cell 62) was 62 (50%). For the same substance, the “Investigators' assessment: Reported improvement from baseline (%)” value (“Investigators' assessment … (%)” for short) ([1]; week 4, 0.005 μg/kg/min, count in cell 63) was 63 (29%), the “Investigators' assessment: Mean change from baseline” value ([1]; week 4, 0.005 μg/kg/min) was 0.9 ± 1.28 and the “Patients' assessment: Mean change from baseline” value ([1]; week 4, 0.005 μg/kg/min) was 1.3 ± 1.33. The “Patients' assessment … (%)” value ([1]; week 4, 0.01 μg/kg/min, count in cell 63) was 63 (51%), the “Investigators' assessment … (%)” value ([1]; week 4, 0.01 μg/kg/min, count in cell 62) was 62 (47%) and the “Patients' assessment: Mean change from baseline” value ([1]; week 4, 0.01 μg/kg/min) was 1.4 ± 1.20. The “Investigators' assessment: Mean change from baseline” value ([1]; week 4, 0.01 μg/kg/min, p < 0.05 compared with usual care) was 1.1 ± 1.28, the “Patients' assessment … (%)” value [1, 6] was 125 (50%) and the “Investigators' assessment … (%)” value [1, 6] was 125 (38%). For the same substance, the “Patients' assessment: Mean change from baseline” value ([1]; week 4, both nesiritide groups) was 1.4 ± 1.26, the “Investigators' assessment: Mean change from baseline” value ([1]; week 4, both nesiritide groups, p < 0.05 compared with usual care) was 1.0 ± 1.28 and the “Patients' assessment … (%)” value ([1]; week 8, 0.005 μg/kg/min, count in cell 53) was 53 (72%). The “Investigators' assessment … (%)” value ([1]; week 8, 0.005 μg/kg/min, count in cell 50) was 50 (54%), the “Patients' assessment: Mean change from baseline” value ([1]; week 8, 0.005 μg/kg/min) was 1.7 ± 1.26 and the “Investigators' assessment: Mean change from baseline” value ([1]; week 8, 0.005 μg/kg/min, p < 0.05 compared with usual care) was 1.3 ± 1.35. The “Patients' assessment … (%)” value ([1]; week 8, 0.01 μg/kg/min, count in cell 56) was 56 (68%), the “Investigators' assessment … (%)” value ([1]; week 8, 0.01 μg/kg/min, count in cell 54) was 54 (59%) and the “Patients' assessment: Mean change from baseline” value ([1]; week 8, 0.01 μg/kg/min) was 1.8 ± 1.26. For the same substance, the “Investigators' assessment: Mean change from baseline” value ([1]; week 8, 0.01 μg/kg/min, p < 0.05 compared with usual care) was 1.6 ± 1.19, the “Patients' assessment … (%)” value ([1]; week 8, both nesiritide groups, count in cell 109) was 109 (70%) and the “Investigators' assessment … (%)” value ([1]; week 8, both nesiritide groups, count in cell 104) was 104 (57%). For the same substance, the “Patients' assessment: Mean change from baseline” value ([1]; week 8, both nesiritide groups) was 1.8 ± 1.25, the “Investigators' assessment: Mean change from baseline” value ([1]; week 8, both nesiritide groups, p < 0.05 compared with usual care) was 1.4 ± 1.27 and the “Patients' assessment … (%)” value ([1]; week 12, 0.005 μg/kg/min, count in cell 54) was 54 (76%). For the same substance, the “Investigators' assessment … (%)” value ([1]; week 12, 0.005 μg/kg/min, count in cell 51) was 51 (55%), the “Patients' assessment: Mean change from baseline” value ([1]; week 12, 0.005 μg/kg/min) was 1.9 ± 1.39 and the “Investigators' assessment: Mean change from baseline” value ([1]; week 12, 0.005 μg/kg/min, p < 0.05 compared with usual care) was 1.4 ± 1.31. For the same substance, the “Patients' assessment … (%)” value [1, 7] was 51 (55%), the “Investigators' assessment … (%)” value [1, 7] was 51 (59%) and the “Patients' assessment: Mean change from baseline” value ([1]; week 12, 0.01 μg/kg/min) was 1.7 ± 1.09. For the same substance, the “Investigators' assessment: Mean change from baseline” value ([1]; week 12, 0.01 μg/kg/min, p < 0.05 compared with usual care) was 1.7 ± 1.16, the “Patients' assessment … (%)” value ([1]; week 12, both nesiritide groups, count in cell 105) was 105 (66%) and the “Investigators' assessment … (%)” value ([1]; week 12, both nesiritide groups, count in cell 102) was 102 (57%). The “Patients' assessment: Mean change from baseline” value ([1]; week 12, both nesiritide groups) was 1.8 ± 1.25, the “Investigators' assessment: Mean change from baseline” value ([1]; week 12, both nesiritide groups, p < 0.05 compared with usual care) was 1.5 ± 1.24 and the “Mean change (±standard deviation) in post-infusion concentration of endothelin-1” value ([2]; 0.005-μg/kg/min) was -0.2 ± 1.5 pg/mL. For the same substance, the “Mean change (±standard deviation) in post-infusion concentration of endothelin-1” value ([2]; 0.01-μg/kg/min, p=0.04 compared to baseline) was -0.6 ± 2.0 pg/mL, the “Post-infusion levels of endothelin-1 versus baseline” value ([2]; after the week 12 infusion, all-nesiritide group, p=0.008 (FIG. 2B)) was “significant change from baseline” and the Ventricular rhythm disturbances [3] was “did not engender ventricular rhythm disturbances”. For the same substance, the “Patients with infusion stopped due to adverse event, %” value (from here on “Patients … to adverse event, %”) ([4]; 0.005 μg/kg/min, n = 72) was 6%, the “Patients with infusion stopped due to adverse event, number” value (shortened to “Patients … to adverse event, number”) ([4]; 0.005 μg/kg/min, n = 72) was 4 and the “Infusion completed, % of infusions” value [4, 8] was 99%. For the same substance, the “Infusion completed, number of infusions” value [4, 8] was 814, the “Infusions stopped due to adverse event, %” value (“Infusions stopped due … %” for short) [4, 8] was < 1% and the “Infusions stopped due to adverse event, number” value (from here on “Infusions stopped due … number”) [4, 8] was 4. The “Patients discontinued from the study before week 12 because of an AE, number” value ([4]; 0.005 μg/kg/min) was 7, the “Patients discontinued from the study prematurely due to an AE, %” value ([4]; 0.005 μg/kg/min) was 10% and the “Patients … to adverse event, %” value ([4]; 0.01 μg/kg/min, n = 69) was 7%. For the same substance, the “Patients … to adverse event, number” value ([4]; 0.01 μg/kg/min, n = 69) was 5, the “Infusion completed, % of infusions” value [4, 9] was 99% and the “Infusion completed, number of infusions” value [4, 9] was 814. The “Infusions stopped due … %” value [4, 9] was < 1%, the “Infusions stopped due … number” value [4, 9] was 7 and the “Patients discontinued from the study before week 12 because of an AE, number” value ([4]; 0.01 μg/kg/min) was 2. For the same substance, the “Patients discontinued from the study prematurely due to an AE, %” value ([4]; 0.01 μg/kg/min) was 3%, the “Deaths considered related to study medication” value ([4]; 12-week treatment period) was “in no case” and the “Adverse cardiovascular or renal events compared with usual care” value ([4]; RAS≧4 cohort) was “not associated with an increase; also recorded: tended to have a lower incidence”. For the same substance, the “Patients … to adverse event, %” value [4, 10] was 6%, the “Patients … to adverse event, number” value [4, 10] was 9 and the “Infusion completed, % of infusions” value [4, 11] was 99%. The “Infusion completed, number of infusions” value [4, 11] was 1628, the “Infusions stopped due … %” value [4, 11] was < 1% and the “Infusions stopped due … number” value [4, 11] was 11. The “Infusion completed, number of infusions” value ([4]; all nesiritide patients, n = 141, 1645 infusions, listed as nesiritide) was 1,628, the “Safety and tolerability of serial outpatient infusions” value ([4]; both doses, 12 weeks, outpatient setting) was “similarly well tolerated; also recorded: safe and well tolerated” and the “Frequency of observed AEs compared with usual-care group” value ([4]; either nesiritide group, through 12 weeks, all patients) was “no increase”. The “Cardiovascular AEs, including symptomatic hypotension, and renal AEs compared to usual-care group” value ([4]; nesiritide groups, all patients) was “not increased”, the Length of stay [5] was “shorter length of stay” and the Readmissions [5] was “fewer readmissions”.
